Assay [1] deals with Gli36 wt. The experiment in a line: glioblastoma proliferation assay (MTT), Gli36 wt. Type of assay: cell-based. As to conditions: Homo sapiens, 250 nM, 72 h, vs DMSO control, read-out: inhibitory effect on cell proliferation as compared to control. The method, then: (§1) The effect of the phenyl diamides according to formulas (5) to (18) on the proliferation of Glioblastoma cells was tested in two pairs of established human glioblastoma cell lines, Gli36 and U87. Human Gli36 wt, U87 wt and U87 EGFRvIII cells were a gift from Prof. Dr. Andreas H. Jacobs, European Institute for Molecular Imaging, Munster, Germany. The cells were maintained in DMEM (PAA) supplemented with 10% fetal calf serum (FCS, Lonza), 1% Penicillin/Streptomycin (PAA) and 110 μg/ml Sodiumpyruvat (Sigma-Aldrich) and were grown at 37° C., 5% CO2.
(§2) 3000 cells per 96 well were seeded into a clear, flat bottom 96 well plate (TPP). After 24 hours the cells were washed twice in 1×DPBS (PAA) and treated with 250 nM of the phenyl diamides according to formulas (5) to (18) in DMEM (PAA) supplemented with 1% FCS (Lonza), 1% Penicillin/Streptomycin (PAA) and 110 μg/ml Sodiumpyruvat (Sigma-Aldrich). Controls were treated with Dimethyl sulfoxide (DMSO) as solvent in an end concentration of 0.4% (v/v). A further control was performed with the control compound according to formula (XH1009). Medium was changed daily.
(§3) After 72 hours cell proliferation was quantified by using a commercially available 3-(4,5-dimethylthiazol-2-yl)-2,5diphenyltetrazolium bromide (MTT) assay (Cell Titer 96® Non-Radioactive Cell Proliferation Assay, Promega) as described in the manufacture's protocol. Briefly, 15 μl of Dye solution was added directly into the 100 μl media of the cells. After 4 hours incubation at 37° C., 5% CO2, 100 μl solubilization solution was added to solubilize the formazan product and the absorbance at 570 nm was measured in a Varioscan microplate reader (Thermo Scientific). All assays were performed at least in triplicates. For calculation of the relative proliferation rate/cell number the mean absorbance in the solvent DMSO only treated cells was set as 1. Results are given as the mean+/−standard error.
(§4) The FIGS. 2 and 3 show the relative cell numbers in the wild type glioblastoma cell line U87 wt (FIG. 2) and Gli36 wt (FIG. 3) normalized to the DSMO treated control after 72 h incubation with the respective phenyl diamides according to formulas (5) to (18), the DSMO treated control compound determined with a MTT proliferation essay. Data were normalized with the exchange in the solvent (DMSO) only control set as 1 and represent the mean values of duplicates, error bars correspond to standard error of the mean (SEM).

The test system of assay [2] is U87 wt. The experiment in a line: glioblastoma proliferation assay (MTT), U87 wt. As to conditions: Homo sapiens, U87WT; for inhibition at 0.25 µM: 250 nM, 72 h, vs DMSO control, read-out: inhibitory effect on cell proliferation as compared to control; for IC50: 72 hours, at least 3 times, read-out: IC50 values of the inhibition of the proliferation in the cell line U87 wt. Type of assay: cell-based. The method, then: as §1, §2, §3, §4
(§5) U87 wt and U87 EGFRvIII cells were a gift from Prof. Dr. Andreas H. Jacobs, European Institute for Molecular Imaging, Münster, Germany. The cells were maintained in DMEM (PAA) supplemented with 1% FCS (Lonza), 1% Penicillin/Streptomycin (PAA) and 110 μg/ml Sodiumpyruvat (Sigma-Aldrich) and were grown at 37° C., 5% CO2.
(§6) 300 cells per 96 well were seeded into a clear, flat bottom 96 well plate (TPP). After 24 hours the cells were washed twice in 1×DPBS (PAA) and treated with concentrations ranging from 2.5 nM to 2 μM of the phenyl diamides according to formulas (5) to (18) or 5 μM of the control compound (XH1009) in DMEM (PAA) supplemented with 1% FCS (Lonza), 1% Penicillin/Streptomycin (PAA) and 110 μg/ml Sodiumpyruvat (Sigma-Aldrich). Controls were treated with Dimethyl sulfoxide (DMSO) as solvent in an end concentration of 0.4% (v/v). Medium was changed daily.
(§7) Further, the IC50 values of the inhibition of the proliferation was determined. The IC50 value was determined by plotting the relative cell number against the added concentrations of the amide. The IC50 value corresponds to the concentration of the phenyl diamides at which the proliferation is reduced to half. The lower the IC50 value, the more strongly the phenyl diamide inhibits proliferation.

In assay [3] the test system is U87 EGFRvIII. The experiment in a line: glioblastoma proliferation assay (MTT), U87 EGFRvIII; selectivity of the inhibition. As to conditions: for IC50: Homo sapiens, U87 EGFRvIII, 72 hours, MTT, at least 3 times, read-out: IC50 values of the inhibition of the proliferation in the cell line U87 EGFRvIII; for selectivity of the inhibition of the EGFRvIII dependent cell proliferation: U87 EGFRvIII compared with parental U87 wt. Type of assay: cell-based, human. The method, then:
as §5, §6, §3, §7

Assay [4] concerns the target T1, sec7-domain of cytohesin-2 (ARNO) (Homo sapiens, UniProt Q99418).
T1 construct: ARNO-Sec7 (amino acids 50-255 of ARNO) were expressed in Escherichia coli; made in house; host or cells: Escherichia coli
T1 sequence (Q99418 50-255): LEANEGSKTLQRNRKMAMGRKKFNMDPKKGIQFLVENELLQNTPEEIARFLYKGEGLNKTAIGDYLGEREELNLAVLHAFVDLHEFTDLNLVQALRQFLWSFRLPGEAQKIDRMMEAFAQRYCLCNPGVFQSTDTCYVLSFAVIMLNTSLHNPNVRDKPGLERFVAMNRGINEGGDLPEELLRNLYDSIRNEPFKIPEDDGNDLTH
The experiment in a line: guanine nucleotide exchange assay (GDP/GTP exchange on [Δ17]ARF1, tryptophan fluorescence). In kind it is biochemical. Particulars: isolated Sec-7 domain, each experiment at least 8 times, read-out: IC50 values measured for the isolated Sec-7 domain of cytohesin-2. The method, then: The inhibition of the exchange activity of the sec7-domain of cytohesin-2 (ARNO) of the phenyl diamides according to formulas (5) to (18) was determined by a guanine nucleotide exchange assay.
The sec7-domain of cytohesin-2 (ARNO) and [Δ17]ARF1, a mutant of the ADP-ribosylation factor (ARF) protein, were subcloned into pET15 vectors (Novagen) as described in Hafner, M. et al. Nature 444, 941-944 (2006). N-terminal truncated [Δ17]ARF1 (amino acids 18-181), lacking the first 17 amino acids and ARNO-Sec7 (amino acids 50-255 of ARNO) were expressed in Escherichia coli and purified by Ni-NTA chromatography (Ni-NTA agarose, Qiagen).
The exchange from […] (GDP) to […] (GTP) induces a conformation change of the ribosylation factor, as a result of which the fluorescence of a tryptophan radical of the protein is increased. GDP/GTP exchange was measured on [Δ17]ARF1 by tryptophan fluorescence because a large increase in intrinsic fluorescence of ARF occurs upon exchange of GDP for GTP. All measurements were performed in PBS (137 mM NaCl, 2.7 mM KCl, 10.2 mM Na2HPO4, 1.8 mM KH2PO4) pH 7.4, 3 mM MgCl2 at 37° C.
[Δ17]ARF1 (1 μM) in PBS without MgCl2 was preincubated with 80 μM GDP in the presence of 2 mM ethylenediaminetetraacetic acid (EDTA) for 15 minutes. The bound GDP was stabilized by addition of MgCl2 at a final concentration of 3 mM and incubation for 5 minutes. For each exchange reaction 250 nM [Δ17]ARF1 was mixed with 10 nM ARNO-Sec7 (total volume 200 μl) in the absence or presence of the phenyl diamides according to formulas (5) to (18). The reaction was started by injection of 50 μM GTP.
The tryptophan fluorescence was measured at excitation and emission wavelength of 280 nm and 340 nm respectively. All fluorescent measurements were performed with a Varioskan microplate reader (Thermo Scientific), in 96-well plates. For analysis all data were fitted by linear regression.
The relative exchange rate was determined by comparing the initial linear rise of the fluorescence signal (exchange rate) in the presence of 2.5 μM of the phenyl diamides according to formulas (5) to (18) with the exchange rate in the presence of the solvent Dimethyl sulfoxide (DMSO), 0.4% end concentration, only. A further control was performed with the control compound according to formula (XH1009) as indicated below: […]
Further, the IC50 value of the inhibition of the sec7-domain of the isolated cytohesin-2 was determined. The IC50 value was determined by plotting the initial linear rise of the fluorescence signal against the added concentrations of the amide. The IC50 value corresponds to the concentration of the phenyl diamides at which the activity of the protein is reduced to half. The lower the IC50 value, the more strongly the phenyl diamide inhibits the sec7-domain.

Here are results for 13 molecules from US20130245275A1, “PHENYL DIAMIDES AND A PHARMACEUTICAL PREPARATION COMPRISING PHENYL DIAMIDES” (Rheinische Friedrich-Wilhelms Universitaet Bonn, priority 2010, published 2013).

“Also recorded” adds a separate entry of the source.

`CC(C)(C)c1ccc(C(=O)Nc2ccc(NC(=O)c3ccccc3[N+](=O)[O-])cc2)cc1` [formula (5), N-{4-[(4-tert-butylbenzoyl)amino]phenyl}-2-nitrobenzamide]: the inhibition at 0.25 µM in assay [1] and in assay [2] was 30 to 50% each time. Moreover, the IC50 in assay [2] turned out to be 168 nM; in assay [3], 46 nM; in assay [4] it was 1180 nM.
In the case of `CC(C)(C)c1ccc(C(=O)Nc2ccc(NC(=O)c3cccc(Cl)c3)cc2)cc1` [formula (6), N-{4-[(4-tert-butylbenzoyl)amino]phenyl}-3-chlorobenzamide], the inhibition at 0.25 µM in assay [1] and in assay [2] was 30 to 50% throughout. The IC50 in assay [2] is 243 nM; in assay [3], 67 nM; in assay [4] it was 790 nM.
Consider `CC(C)(C)c1ccc(C(=O)Nc2ccc(NC(=O)c3ccc(Br)o3)cc2)cc1` [formula (7)], for which the IC50 was 1370 nM in assay [2], 198 nM in assay [3] and 4570 nM in assay [4]. In addition, in assay [3], the “selectivity of the inhibition of the EGFRvIII dependent cell proliferation” value was “selectively inhibited the proliferation of the U87 EGFRvIII-containing cell line; also recorded: selectivity for the mutation EGFR variant III (EGFRvIII)”.
As for `Cc1ccccc1C(=O)Nc1ccc(NC(=O)c2ccc(C(C)(C)C)cc2)cc1` [formula (8)], the inhibition at 0.25 µM in assay [1] and in assay [2] was over 50% each time. Further, the IC50 was 118 nM in assay [2], 148 nM in assay [3] and 1190 nM in assay [4].
Consider `CC(C)(C)c1ccc(C(=O)Nc2ccc(NC(=O)c3ccc(F)cc3)cc2)cc1` [formula (9)], for which the inhibition at 0.25 µM in assay [1] and in assay [2] was 30 to 50% in each case. Further, the IC50 was 89 nM in assay [2], 372 nM in assay [3] and 2100 nM in assay [4].
For the molecule `CC(C)(C)c1ccc(C(=O)Nc2ccc(NC(=O)c3ccc([N+](=O)[O-])cc3)cc2)cc1` [formula (10)], the inhibition at 0.25 µM in assay [1] and in assay [2] was over 50% each time. For the same molecule, the values for the IC50 in assay [2], in assay [3] and in assay [4] were 28 nM, 83 nM and 440 nM, respectively. Also, the “selectivity of the inhibition of the EGFRvIII dependent cell proliferation” value in assay [3] was “selectivety for the inhibition of the parental U87 wt cell line”.
`CC(C)(C)c1ccc(C(=O)Nc2ccc(NC(=O)c3ccccc3Cl)cc2)cc1` [formula (11)]: the inhibition at 0.25 µM in assay [1] and in assay [2] was over 50% throughout. In addition, the IC50 in assay [2] came out at 106 nM; in assay [3] it was 126 nM; in assay [4], 2580 nM.
`Cc1ccc(C(=O)Nc2ccc(NC(=O)c3ccc(C(C)(C)C)cc3)cc2)c(C)c1` [formula (12)]: the IC50 in assay [2] was determined as 367 nM; in assay [3], 84 nM; in assay [4] it was 1860 nM.
With `CC(C)(C)c1ccc(C(=O)Nc2ccc(NC(=O)c3ccncc3)cc2)cc1` [formula (13)], the IC50 was 2090 nM in assay [2], 186 nM in assay [3] and 7270 nM in assay [4]. The “selectivity of the inhibition of the EGFRvIII dependent cell proliferation” value in assay [3] was “selectively inhibits the EGFRvIII expressing U87 cell line; also recorded: selectively inhibited the proliferation of the U87 EGFRvIII-containing cell line; also recorded: selectivity for the mutation EGFR variant III (EGFRvIII)”. The “inhibition of proliferation of EGFRvIII-cells relative to parental cell line” value in assay [3] (U87 EGFRvIII vs parental U87 wt, FIG. 4B) is “more than 10 fold”.
Turning to `Cc1ccc(C(=O)Nc2ccc(NC(=O)c3ccc(C(C)(C)C)cc3)cc2)cc1` [formula (14)], the inhibition at 0.25 µM in assay [1] and in assay [2] was over 50% throughout. Besides, the IC50 in assay [4] was determined as 1760 nM.
For the molecule `CC(C)(C)c1ccc(C(=O)Nc2ccc(NC(=O)c3ccccc3F)cc2)cc1` [formula (15)], in assay [4], the IC50 turned out to be 1770 nM.
As for `CC(C)(C)c1ccc(C(=O)Nc2ccc(NC(=O)/C=C/c3ccco3)cc2)cc1` [formula (16), 4-tert-butyl-N-[4-[[(E)-3-furan-2-ylprop-2-enoyl]amino]phenyl]-benzamide], the figures for the IC50 in assay [2], in assay [3] and in assay [4] were 958 nM, 435 nM and 3750 nM, respectively. The “selectivity of the inhibition of the EGFRvIII dependent cell proliferation” value in assay [3] was “no selectivety”.
Turning to `CC(C)(C)c1ccc(C(=O)Nc2ccc(NC(=O)c3ccc4c(c3)OCO4)cc2)cc1` [formula (17)], the results for the IC50 in assay [2], in assay [3] and in assay [4] were 922 nM, 224 nM and 2690 nM, respectively. Also, in assay [3], the “selectivity of the inhibition of the EGFRvIII dependent cell proliferation” value is listed as “selectively inhibited the proliferation of the U87 EGFRvIII-containing cell line; also recorded: selectivity for the mutation EGFR variant III (EGFRvIII)”.
